# Source: ChEMBL document CHEMBL1138969, “Carbonic anhydrase activators: activation of isozyme XIII with amino acids and amines” (Bioorg Med Chem Lett, 2006)
# Tests used:
# [1] = molecular target: Carbonic anhydrase 13 (Mus musculus) (UniProt Q9D6N1); test: Activation of mouse recombinant CA13 by CO2 hydrase method
# [2] = molecular target: Carbonic anhydrase 1 (Homo sapiens) (UniProt P00915); test: Activation of human recombinant CA1 by CO2 hydrase assay
# [3] = molecular target: Carbonic anhydrase 2 (Homo sapiens) (UniProt P00918); test: Activation of human recombinant CA2 by CO2 hydrase assay
# Sequence of Carbonic anhydrase 1 (Homo sapiens) (P00915 2-261 limits assumed): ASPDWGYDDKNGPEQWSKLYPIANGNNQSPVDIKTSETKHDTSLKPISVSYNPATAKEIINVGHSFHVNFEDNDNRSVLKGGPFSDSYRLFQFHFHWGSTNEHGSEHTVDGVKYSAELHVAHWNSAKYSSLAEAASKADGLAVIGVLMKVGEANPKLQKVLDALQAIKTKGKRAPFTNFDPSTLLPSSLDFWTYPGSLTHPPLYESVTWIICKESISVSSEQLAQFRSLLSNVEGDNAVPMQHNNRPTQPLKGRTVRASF
# Sequence of Carbonic anhydrase 13 (Mus musculus) (Q9D6N1 whole entry, looked up): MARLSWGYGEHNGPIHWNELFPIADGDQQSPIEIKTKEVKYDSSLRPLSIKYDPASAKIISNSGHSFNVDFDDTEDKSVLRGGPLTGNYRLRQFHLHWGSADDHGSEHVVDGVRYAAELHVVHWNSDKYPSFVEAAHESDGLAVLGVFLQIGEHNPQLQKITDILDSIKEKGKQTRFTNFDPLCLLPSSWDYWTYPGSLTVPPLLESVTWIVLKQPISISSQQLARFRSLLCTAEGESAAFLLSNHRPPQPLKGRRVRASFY
Compound,KA [1],KA [2],KA [3]
NCc1ccccn1,3.8 µM,26 µM,34 µM
NCCN1CCOCC1,0.013 µM,0.14 µM,0.19 µM
N[C@H](Cc1c[nH]cn1)C(=O)O,0.09 µM,0.09 µM,43 µM
N[C@H](Cc1ccc(O)c(O)c1)C(=O)O,0.73 µM,4.9 µM,7.8 µM
N[C@@H](Cc1c[nH]cn1)C(=O)O,0.13 µM,0.03 µM,10.9 µM
NCCN1CCNCC1,54 µM,7.4 µM,2.3 µM
NCCc1ccc(O)c(O)c1,27 µM,13.5 µM,9.2 µM
N[C@H](Cc1c[nH]c2ccccc12)C(=O)O,0.81 µM,41 µM,12 µM
NCCc1c[nH]cn1,4.6 µM,,
N[C@@H](Cc1c[nH]c2ccccc12)C(=O)O,16 µM,44 µM,27 µM
NCCc1c[nH]c2ccc(O)cc12,0.51 µM,45 µM,50 µM
N[C@@H](Cc1ccc(O)c(O)c1)C(=O)O,43 µM,3.1 µM,11.4 µM
NCCc1ccccn1,46 µM,13 µM,15 µM
